The values below come from patent publication US10925851B2 (Regents of the University of Minnesota, priority 2018, dated 2021).

Structures are written as SMILES. Values joined by “and” are separate entries in the source; they are usually repeats but may differ in a detail not shown here. Equal values may be shown once.

In one data set the target is T1, Neprilysin (NEP) (Homo sapiens, UniProt P08473).
T1 construct: purchased Enzo Life Sciences
As to the kind of experiment: Neprilysin inhibition assay (Mca-[…](Dpn) FRET substrate). Format: biochemical. The protocol:
Single concentration studies at 10 μM: Neprilysin inhibition assays were performed as described previously. The substrate Mca-[…](Dpn) and endopeptidase NEP were purchased from Enzo Life Sciences. […] Plate was mixed with a plate shaker at 1500 rpm for 30 seconds. The reaction was started with the addition of 6 μM of the FRET substrate and mixed for another 30 seconds at 1500 rpm. Mca fluorescence is quenched by Dpn until cleavage at Phe by NEP. The accumulation of the Mca was measured by exciting at 320 nm and reading the fluorescence at 405 nm on a Molecular Devices M5e plate reader for 40 minutes at room temperature. Percent inhibition is calculated in GraphPad Prism software using slopes in the linear range for each inhibitor at 10 μM.
Dose-Response Studies for NEP: Neprilysin inhibition assays were performed as described previously. The substrate Mca-[…](Dpn) and endopeptidase NEP were purchased from Enzo Life Sciences. Briefly, 0.5 nM NEP was incubated with 0.5 μL inhibitor. Compounds were tested at 3× dilutions from 100 μM final concentration in 50 mM HEPES pH 6.5 in 50 μL total volume in a black 384-well plate. Plate was mixed with a plate shaker at 1500 rpm for 30 seconds. The reaction was started with the addition of 6 μM of the FRET substrate and mixed for another 30 seconds at 1500 rpm. Mca fluorescence is quenched by Dpn until cleavage at Phe by NEP. The accumulation of the Mca was measured by exciting at 320 nm and reading the fluorescence at 405 nm on a Molecular Devices M5e plate reader for 40 minutes at room temperature. Steady state velocities were used to determine IC50 values by fitting the velocities vs. inhibitor concentration to the sigmoidal concentration-response curve (variable slope) using GraphPad Prism.

The target of another data set is T2, Aminopeptidase N (APN) (Homo sapiens, UniProt P15144).
T2 construct: purchased R&D Systems
Description: Aminopeptidase N enzyme assay (Ala-AMC substrate, fluorescence). The data set is classed as biochemical. As to the method: Single concentration studies at 10 μM: Aminopeptidase N assays were performed as described previously. Aminopeptidase N was purchased from R&D Systems. Amino-4-methylcoumarin (Ala-AMC) was purchased from Bachem. Briefly, 0.1 μg/μL APN was incubated with 1 μL of 1 mM inhibitor in 50 mM Tris buffer, pH 7.5, in 100 μL volume in a black 384-well plate in duplicate. The reaction was started with the addition of Ala-AMC substrate at a final concentration of 100 μM. The cleavage accumulation AMC was measured by exciting at 380 nm and reading the fluorescence at 460 nm on a Molecular Devices SpectraMax i3 plate reader for 20 min at room temperature. Percent inhibition is calculated in GraphPad Prism software using slopes in the linear range for each inhibitor at 10 μM.
Dose-Response Studies for APN: Aminopeptidase N enzyme assays were performed as described previously.^26 Briefly, 0.1 μg/μL APN was incubated with 1 μL inhibitor in 50 mM Tris buffer, pH 7.5, in 50 μL volume in a black 384-well plate in duplicate. Compounds were tested at 3× dilutions from 100 μM final concentration. The reaction was started with the addition of Ala-AMC substrate at a final concentration of 100 μM. The accumulation of AMC was measured by exciting at 380 nm and reading the fluorescence at 460 nm on a Molecular Devices SpectraMax i3 plate reader for 30 min at room temperature. Steady state velocities were used to determine IC50 values by fitting the velocities vs. inhibitor concentration to the sigmoidal concentration-response curve (variable slope) using GraphPad Prism.

Data set [1] is described as follows: Distribution of tosedostat in brain and plasma (LC-MS/MS). The data set is classed as in vivo, mouse. As to conditions: 10 mg/Kg i.p., over 4 hours. As to the method:
The subjects were intraperitoneally injected with ketamine-xylazine cocktail (100 mg/kg ketamine+10 mg/kg xylazine) 2 minutes prior to the time-point being analyzed. Specifically, samples were collected at 0.25, 0.5, 1, 2, and 4 hours after the drug administration. […] Samples were immediately centrifuged at 3000×rpm for 10 minutes at 4° C. and the separated top plasma layer was transferred into a new tube. Blood samples stored at −80° C. until LC-MS/MS analysis. For brain samples, brain tissue was extracted from the animal and washed with copious volumes of ice-cold D-PBS for removal of blood from the sample. and Collect brain and wash the brain with ice-cold DPBS properly to remove blood. The sample was then gently wiped with absorbent paper, weighed, and transferred into a 15 mL tube. The brain samples were homogenized by adding 1:5 (w/v) of ice-cold D-PBS into the tube and using mechanical homogenizer on them. Homogenized brain samples were also stored at −80° C.
LC-MS/MS analysis: Frozen plasma and brain homogenate samples were thawed and rapidly quenched as detailed here. For plasma samples, 30 μL of DMSO and 60 μL of acetonitrile containing 0.1% formic acid were added to 30 μL of each unknown thawed plasma sample. For brain homogenate samples, 10 μL of DMSO and 60 μL of acetonitrile containing 0.1% formic acid were added to 30 μL of each unknown sample. […]

Where [2] appears, read: dose response, 3x dilutions from 100 μM.

T2 sequence (P15144 whole entry): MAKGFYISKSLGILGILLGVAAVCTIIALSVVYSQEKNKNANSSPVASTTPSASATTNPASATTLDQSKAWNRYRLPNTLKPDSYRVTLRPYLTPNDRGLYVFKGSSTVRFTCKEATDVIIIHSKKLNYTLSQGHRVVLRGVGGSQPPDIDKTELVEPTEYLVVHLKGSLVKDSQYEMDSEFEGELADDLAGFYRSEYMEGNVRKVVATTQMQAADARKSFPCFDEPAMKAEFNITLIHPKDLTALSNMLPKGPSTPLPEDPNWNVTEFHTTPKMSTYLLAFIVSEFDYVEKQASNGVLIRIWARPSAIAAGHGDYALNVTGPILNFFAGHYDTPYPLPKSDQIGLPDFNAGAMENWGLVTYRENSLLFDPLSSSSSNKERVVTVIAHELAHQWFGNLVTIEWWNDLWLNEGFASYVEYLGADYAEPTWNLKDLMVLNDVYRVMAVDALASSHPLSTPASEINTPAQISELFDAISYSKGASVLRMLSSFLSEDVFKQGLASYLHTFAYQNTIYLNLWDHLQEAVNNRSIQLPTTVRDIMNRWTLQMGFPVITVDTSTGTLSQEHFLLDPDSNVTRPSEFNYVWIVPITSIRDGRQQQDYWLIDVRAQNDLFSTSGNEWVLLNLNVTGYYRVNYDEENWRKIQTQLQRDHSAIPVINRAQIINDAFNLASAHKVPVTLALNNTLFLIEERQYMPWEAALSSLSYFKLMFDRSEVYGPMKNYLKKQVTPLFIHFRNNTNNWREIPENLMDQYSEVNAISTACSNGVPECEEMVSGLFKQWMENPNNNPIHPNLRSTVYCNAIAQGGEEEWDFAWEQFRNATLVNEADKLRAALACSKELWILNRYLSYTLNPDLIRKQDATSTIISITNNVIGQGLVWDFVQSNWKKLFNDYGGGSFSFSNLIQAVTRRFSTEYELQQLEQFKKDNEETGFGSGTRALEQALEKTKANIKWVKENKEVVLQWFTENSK
T1 sequence (P08473 whole entry, species assumed): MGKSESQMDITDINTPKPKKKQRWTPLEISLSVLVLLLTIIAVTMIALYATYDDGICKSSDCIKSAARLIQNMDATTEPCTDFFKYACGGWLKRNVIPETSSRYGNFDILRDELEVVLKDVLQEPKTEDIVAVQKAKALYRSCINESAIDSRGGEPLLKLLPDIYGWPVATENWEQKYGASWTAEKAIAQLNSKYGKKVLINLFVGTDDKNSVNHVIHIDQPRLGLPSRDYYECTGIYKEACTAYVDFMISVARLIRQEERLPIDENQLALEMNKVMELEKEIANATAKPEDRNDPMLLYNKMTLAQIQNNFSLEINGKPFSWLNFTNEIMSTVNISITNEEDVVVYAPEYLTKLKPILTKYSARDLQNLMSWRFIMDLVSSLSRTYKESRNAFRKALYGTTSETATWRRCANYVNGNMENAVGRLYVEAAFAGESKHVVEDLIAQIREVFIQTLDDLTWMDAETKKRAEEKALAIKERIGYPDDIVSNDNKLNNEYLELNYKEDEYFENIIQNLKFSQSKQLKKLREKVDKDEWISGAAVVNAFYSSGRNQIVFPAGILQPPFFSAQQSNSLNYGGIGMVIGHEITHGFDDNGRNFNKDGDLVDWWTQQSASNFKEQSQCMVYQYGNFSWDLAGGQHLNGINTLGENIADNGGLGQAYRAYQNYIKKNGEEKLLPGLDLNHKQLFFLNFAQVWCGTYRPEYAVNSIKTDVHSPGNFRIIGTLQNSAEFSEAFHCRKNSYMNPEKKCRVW

On to `CC(C)C[C@@H](C(=O)N[C@H](C(=O)OC1CCCC1)c1ccccc1)[C@H](O)C(=O)NO` [Tosedostat], for which the IC50 against Neprilysin (NEP) (setting [2]) is 0.9 µM and 0.89 µM; on Aminopeptidase N (APN) (setting [2]), 0.93 µM and 0.933 µM. Also, the inhibition at 10 µM at Neprilysin (NEP) (inhibitor 10 μM, read-out: NEP @ 10 μM (percent inhibition)) was 79%; at Aminopeptidase N (APN) (inhibitor 10 μM, read-out: APN @ 10 μM (percent inhibition)), 83%. Further, at Aminopeptidase N (APN), the “activity against APN (in words)” value was “micromolar activity against APN”. Further, the “presence in brain homogenate compared to plasma samples” value in data set [1] was “minimal presence of tosedostat in the brain homogenate samples”.

As a reminder, the IC50 is the point on the concentration scale where inhibition reaches its midpoint. Lower therefore signals greater potency in that assay. The inhibition is the percentage by which the read-out fell short of the control.
